# Laboratory results from US5929110A, “Fatty acid analogs and prodrugs” (G. D. Searle & Co., priority 1998, dated 1999).
# Tested on: HIV-1
# Assay: inhibition of HIV-1; reduction of cytopathogenic effect in virus-infected Leu-3a-positive CEM cells (MTT assay)
# Assay type: cell-based, strain HTVL-IIIB
# Conditions: Human immunodeficiency virus 1, CCRF-CEM, multiplicity of infection 0.1, MTT read on 7th to 9th day post-infection
# Protocol: Inhibitory activity against HIV-1 was shown by tests involving plating of susceptible human host cells which are syncytium-sensitive with and without virus in microculture plates, adding various concentrations of the test compound, incubating the plates for 7 to 9 days (during which time infected, non-drug treated control cells are largely or totally destroyed by the virus), and then determining the remaining number of viable cells with a colorometric endpoint.
# Various illustrative compounds synthesized above were tested for inhibition of HIV-1 in a test which measured reduction of cytopathogenic effect in virus-infected syncytium-sensitive Leu-3a-positive CEM cells grown in tissue culture as follows:
# Tissue culture plates were incubated at 37° C. in a humidified, 5% CO2 atmosphere and observed microscopically for toxicity and/or cytopathogenic effect (CPE). At 1 hour prior to infection each test article was prepared from the frozen stock, and a 20 μl volume of each dilution (prepared as a 10× concentration) was added to the appropriate wells of both infected and uninfected cells.
# Assays were done in 96-well tissue culture plates. CEM cells were treated with polybrene at a concentration of 2 μg/ml, and an 80 μl volume of cells (1×10^4 cells) was dispensed into each well. A 100 μl volume of each test article dilution (prepared as a 2× concentration) was added to 5 wells of cells, and the cells were incubated at 37° C. for 1 hour. A frozen culture of HIV-1, strain HTVL-IIIB, was diluted in culture medium to a concentration of 5×10^4 TCID50 per ml, and a 20 μl volume (containing 10^3 TCID50 of virus) was added to 3 of the wells for each test article concentration. […] A 20 μl volume of normal culture medium was added to the remaining wells to allow evaluation of cytotoxicity. Each plate contained 6 wells of untreated, uninfected, cell control samples and 6 wells of untreated, infected, virus control samples.
# On the 7th to 9th day post-infection, the cells in each well were resuspended and a 100 μl sample of each cell suspension was removed for use in an MTT assay. A 20 μl volume of a 5 mg/ml solution of 3-(4,5-dimethylthiazol-2-yl)-2,5-diphenyltetrazolium bromide (MTT) was added to each 100 μl cell suspension, and the cells were incubated at 37° C. in 5% CO2 for 4 hours. […] A 100 μl volume of a solution of 10% sodium dodecyl sulfate in 0.01N hydrochloric acid was added to each sample, and the samples were incubated overnight. The absorbance at 590 nm was determined for each sample using a Molecular Devices Vmax microplate reader. This assay detects drug-induced suppression of viral CPE, as well as drug cytotoxicity, by measuring the generation of MTT-formazan by surviving cells.
row,Compound,EC50
1,"COCCCCCCCCCCCC(=O)NCc1ccccc1 [Example 14, 12-Methoxy-N-(phenylmethyl)dodecanamide]",3.8 µM
2,"CCOC(=O)c1cccc(NC(=O)CCCCCCCCCCCOC)c1 [Example 17, Ethyl 3-[(12-Methoxy-1-oxododecyl)amino]-benzoate]",8.2 µM
3,"COCCCCCCCCCCCC(=O)Nc1cccc(C(=O)O)c1 [Example 18, 3-[(12-Methoxy-1-oxododecyl)amino]benzoic acid]",> 285 µM
4,"CCOC(=O)[C@@H](NC(=O)CCCCCCCCCCCOC)[C@@H](C)CC [Example 45, N-(12-Methoxy-1-oxododecyl)-L-isoleucine, Ethyl ester]",< 2.7 µM
5,"CCOC(=O)[C@H](NC(=O)CCCCCCCCCCCOC)[C@H](C)CC [Example 48, N-(12-Methoxy-1-oxododecyl)-D-isoleucine, Ethyl ester]",> 265 µM
6,"CCOC(=O)[C@H](Cc1ccccc1)NC(=O)CCCCCCCCCCCOC [Example 49, N-(12-Methoxy-1-oxododecyl)-L-phenylalanine, Ethyl ester]",5.4 µM
7,"COCCCCCCCCCCCC(=O)N[C@@H](Cc1ccccc1)C(=O)OC(C)(C)C [Example 50, N-(12-Methoxy-1-oxododecyl)-L-phenylalanine, 1,1-Dimethylethyl ester]",11.1 µM
8,"CCOC(=O)[C@@H](Cc1ccccc1)NC(=O)CCCCCCCCCCCOC [Example 52, N-(12-Methoxy-1-oxododecyl)-D-phenylalanine, Ethyl ester]",> 245 µM
9,"COCCCCCCCCCCCC(=O)N[C@H](Cc1ccccc1)C(=O)OC(C)(C)C [Example 54, N-(12-Methoxy-1-oxododecyl)-D-phenylalanine, 1,1-Dimethylethyl ester]",> 230 µM
10,"CCCCCCCCCCOCCC(=O)N[C@@H](Cc1ccccc1)C(=O)OCC [Example 55, N-(3-(Decycloxy)-1-oxopropyl]-L-phenylalanine, Ethyl ester]",> 240 µM
11,"CCCCCCCCCCOCCC(=O)N[C@H](Cc1ccccc1)C(=O)OCC [Example 56, N-(3-(Decyloxy)-1-oxopropyl]-D-phenylalanine, Ethyl ester]",> 240 µM
12,"CCOC(=O)[C@H](CCC(=O)OCc1ccccc1)NC(=O)CCCCCCCCCCCOC [Example 59, N-(12-methoxy-1-oxododecyl)-L glutamic acid, 1-Ethyl 5-(Phenylmethyl) ester]",7.3 µM
13,"CCOC(=O)[C@@H](CCC(=O)OCc1ccccc1)NC(=O)CCCCCCCCCCCOC [Example 62, N-(12-methoxy-1-oxododecyl)-D-glutamic acid, 1-Ethyl 5-(Phenylmethyl) ester]",> 205 µM
14,"CCOC(=O)[C@H](CCCCNC(=O)OCc1ccccc1Cl)NC(=O)CCCCCCCCCCCOC [Example 65, N6-[[(2-Chlorophenyl)methoxy]carbonyl]-N2-(12-methoxy-1oxododecyl)-L-lysine, Ethyl ester]",7.4 µM
15,"CCOC(=O)[C@@H](CCCCNC(=O)OCc1ccccc1Cl)NC(=O)CCCCCCCCCCCOC [Example 68, N6-[[(2-Chlorophenyl)methoxy]carbonyl]-N2-(12-methoxy-1-oxododecyl)-D-lysine, Ethyl ester]",13.1 µM
16,"CCOC(=O)[C@H](Cc1c[nH]c2ccccc12)NC(=O)CCCCCCCCCCCOC [Example 71, N-(12-Methoxy-1-oxododecyl)-L-tryptophan, Ethyl ester]",18 µM
17,"CCOC(=O)[C@@H](Cc1c[nH]c2ccccc12)NC(=O)CCCCCCCCCCCOC [Example 74, N-(12-Methoxy-1-oxododecyl)-D-tryptophan, Ethyl ester]",> 221 µM
18,"CCOC(=O)[C@@H](NC(=O)CCCCCCCCCCCOC)[C@@H](C)OCc1ccccc1 [Example 77, N-(12-methoxy-1-oxododecyl)-O-(phenylmethyl)-L-threonine, Ethyl ester]",11.8 µM
19,"CCOC(=O)[C@H](NC(=O)CCCCCCCCCCCOC)[C@H](C)OCc1ccccc1 [Example 80, N-(12-methoxy-1-oxododecyl)-O-(phenylmethyl)-D-threonine, Ethyl ester]",> 225 µM
20,COCCCCCCCCCCCC(=O)NCC(=O)O [Example 81],27.5 µM
21,"COCCCCCCCCCCCC(=O)N[C@@H](Cc1ccccc1)C(=O)O [Example 82, N-(12-Methoxy-1-oxododecyl)-L-phenylalanine]",13 µM
22,"COCCCCCCCCCCCC(=O)N[C@H](Cc1ccccc1)C(=O)O [Example 83, N-(12-Methoxy-1-oxododecyl)-D-phenylalanine]",> 265 µM
23,"COCCCCCCCCCCCC#N [Example 84, 12-Methoxydodecanenitrile]",> 470 µM
24,"COCCCCCCCCCCCc1nnn[nH]1 [Example 85, 5-(11-Methoxyundecyl)-1H-tetrazole]",> 390 µM
25,"CCn1nnnc1CCCCCCCCCCCOC [Example 86A, 1-Ethyl-5-(11-methoxyundecyl)-1H-tetrazole]",> 350 µM
26,"CCn1nnc(CCCCCCCCCCCOC)n1 [Example 86B, 2-Ethyl-5-(11-methoxyundecyl)-2H-tetrazole]",> 350 µM
27,"COCCCCCCCCCCCc1nnnn1Cc1ccccc1 [Example 87A, 5-(11-Methoxyundecyl)-1-(phenylmethyl)-1H-tetrazole]",> 290 µM
28,"COCCCCCCCCCCCc1nnn(Cc2ccccc2)n1 [Example 87B, 5-(11-Methoxyundecyl)-2-(phenylmethyl)-2H-tetrazole]",> 290 µM
29,"COCCCCCCCCCCCCO [Example 88, 12-Methoxydodecanol]",> 450 µM
30,"COCCCCCCCCCCCC(C)=O [Example 89, 13-Methoxy-2-tridecanone]",> 430 µM

# Tested on: not listed separately
# Assay: biological half-life in rat hepatic S9 preparation
# Assay type: in vitro ADME
# Conditions: liver s9; rat hepatic S9, approximately 2 mcg/mL, 37° C., 0 to 20 minutes; read-out: Half-life
# Protocol: Various illustrative compounds synthesized in Examples above were tested for biological half-life. Compounds were incubated at a concentration of approximately 2 mcg/mL in a rat liver S9 preparation which was prepared according to standard procedures with minor modifications^1. The reactions were conducted at 37° C. in a water bath and stopped by the addition of ice cold methanol at various times ranging from 0 to 20 minutes. Aliquots of the incubations were analyzed by high performance liquid chromatography (HPLC) for the compound of interest. The analyses were conducted on a Waters HPLC system consisting of a model 510 pump and a Wisp model 712 automatic injector. Waters C18 columns were used to perform the separations. The compounds were detected by UV adsorption. The mobile phases consisted of acetonitrile and sodium phosphate buffer (40 mM, pH 3.5); specific conditions were varied slightly for each compound. Concentrations of each compound were determined with time and the rate of metabolism was determined by analyzing the data using the CSTRIP program^2.
# ^1 Subcellular Fractionation of Rat Liver. S. Fleischer and M. Kervina in Methods of Enzymology, Vol. XXXI, Biomembranes Part A, S. Fleischer and L. Packer Eds., pp. 6-41 (1974).
# ^2 A. T. Sedman and J. G. Warner, "CSTRIP. A Fortran IV Computer Program for Obtaining Initial Polyexponential Parameter Estimates.", J. Pharm. Sci. 65, 1006-1010 (1976).
row,Compound,half-life
1,"COCCCCCCCCCCCC(=O)NCc1ccccc1 [Example 14, 12-Methoxy-N-(phenylmethyl)dodecanamide]",2.41 min
2,"COCCCCCCCCCCCC(=O)Nc1cccc(C(=O)O)c1 [Example 18, 3-[(12-Methoxy-1-oxododecyl)amino]benzoic acid]",8.46 min
3,"CCOC(=O)[C@H](Cc1ccccc1)NC(=O)CCCCCCCCCCCOC [Example 49, N-(12-Methoxy-1-oxododecyl)-L-phenylalanine, Ethyl ester]",1.07 min
4,"CCCCCCCCCCOCCC(=O)N[C@H](Cc1ccccc1)C(=O)OCC [Example 56, N-(3-(Decyloxy)-1-oxopropyl]-D-phenylalanine, Ethyl ester]",1.97 min
5,"CCOC(=O)[C@@H](CCCCNC(=O)OCc1ccccc1Cl)NC(=O)CCCCCCCCCCCOC [Example 68, N6-[[(2-Chlorophenyl)methoxy]carbonyl]-N2-(12-methoxy-1-oxododecyl)-D-lysine, Ethyl ester]",8.54 min

# Same assay, conditions: liver s9; rat hepatic S9, approximately 2 mcg/mL, 37° C.; read-out: Half-life (not detected at initial sampling)
row,Compound,half-life
1,"CCOC(=O)c1cccc(NC(=O)CCCCCCCCCCCOC)c1 [Example 17, Ethyl 3-[(12-Methoxy-1-oxododecyl)amino]-benzoate]",< 5 min
